The results in this text go back to paper PMC6413153, “Design, Synthesis, and Use of Novel Photoaffinity Probes in Measuring the Serum Concentration of Glycogen Phosphorylase” (Molecules, 2019).

By melting point is commonly meant the temperature of the solid-liquid transition. Broadly, the IC50 is the concentration needed to halve the response being measured. Higher therefore signals a need for much substance.

In series [1] the target is T1, rabbit muscle glycogen phosphorylase a (RMGPa) (Oryctolagus cuniculus, UniProt P00489).
T1 sequence (P00489 2-843 limits assumed): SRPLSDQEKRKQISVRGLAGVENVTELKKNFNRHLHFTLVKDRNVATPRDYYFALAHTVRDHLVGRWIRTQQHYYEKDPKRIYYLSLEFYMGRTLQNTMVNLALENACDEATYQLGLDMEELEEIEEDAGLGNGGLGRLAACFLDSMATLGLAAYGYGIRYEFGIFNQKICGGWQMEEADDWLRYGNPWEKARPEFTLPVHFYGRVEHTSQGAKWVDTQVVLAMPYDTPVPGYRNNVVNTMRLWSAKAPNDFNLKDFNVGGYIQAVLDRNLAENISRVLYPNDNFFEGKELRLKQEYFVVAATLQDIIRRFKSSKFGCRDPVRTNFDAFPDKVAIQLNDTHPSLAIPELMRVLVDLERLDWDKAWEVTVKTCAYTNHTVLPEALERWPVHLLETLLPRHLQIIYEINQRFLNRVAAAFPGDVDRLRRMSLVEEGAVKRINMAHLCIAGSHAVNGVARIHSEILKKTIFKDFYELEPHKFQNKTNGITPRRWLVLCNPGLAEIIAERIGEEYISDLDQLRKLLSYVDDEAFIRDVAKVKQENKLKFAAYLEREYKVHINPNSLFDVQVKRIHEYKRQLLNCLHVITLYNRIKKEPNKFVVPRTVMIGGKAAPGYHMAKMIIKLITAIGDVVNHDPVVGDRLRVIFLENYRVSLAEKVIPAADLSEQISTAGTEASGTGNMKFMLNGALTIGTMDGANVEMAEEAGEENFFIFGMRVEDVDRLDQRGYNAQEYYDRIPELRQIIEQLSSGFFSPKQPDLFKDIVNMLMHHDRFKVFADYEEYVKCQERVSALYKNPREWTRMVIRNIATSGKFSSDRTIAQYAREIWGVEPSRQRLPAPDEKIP
Briefly: Enzyme inhibition assay against rabbit muscle glycogen phosphorylase a (phosphate release from glucose-1-phosphate). The format is biochemical. The settings on record: mean ± S.D. of three determinations; NI means no inhibition. How it is done:
To understand the validity of the synthetic probes, the synthesized probes 1–3 were evaluated in an enzyme inhibition assay against rabbit muscle glycogen phosphorylase a (RMGPa). As described previously, the activity of RMGPa was measured through detecting the release of phosphate from glucose-1-phosphate in the direction of glycogen synthesis, based on the published method.
The inhibitory activity of the test compounds against RMGPa was monitored using a microplate reader (BIO-RAD, Bio-Rad Laboratories, Hercules, CA, USA), based on the published method. In brief, RMGPa activity was measured in the direction of glycogen synthesis by the release of phosphate from glucose-1-phosphate. Each test compound was dissolved in DMSO and diluted at different concentrations for IC50 determination. The enzyme was added to 100 μL of buffer containing 50 mM Hepes (pH = 7.2), 100 mM KCl, 2.5 mM MgCl2, 0.5 mM glucose-1-phosphate, 1 mg/mL glycogen, and the test compound in 96-well microplates (Costar, Corning Incorporated, Corning, NY, USA). After the addition of 150 μL of 1 M HCl containing 10 mg/mL ammonium molybdate and 0.38 mg/mL malachite green, reactions were run at 22 °C for 25 min, and then the phosphate absorbance was measured at 655 nm. The IC50 values were estimated by fitting the inhibition data to a dose-dependent curve using a logistic derivative equation.

For series [2], the system named is serum proteomes prepared from rats with acute myocardial infarction. Description: Photoaffinity labeling of serum proteomes, gel-based fluorescence imaging. Type of series: binding, rat. The settings on record: UV light 30 min. How it is done:
Based on the results of the potency in the enzyme assay, probe 1 was selected and used throughout photolabeling studies (Figure 3). The serum proteomes prepared from rats with acute myocardial infarction were incubated with probe 1 at concentrations of […], and 300, 100, and 30 nM, respectively. The mixture was exposed to UV light for 30 min, and then was imaged using the Tanon-6100 Chemiluminescent Imaging system.
An attempt to semi-quantitatively analyze the serum-free GP level after an acute myocardial infarction was explored. Serum blanks were added in increasing quantities of RMGPa (0, 12.5, 25, 50, and 100 ng/mL at a final concentration) in the presence of an excess of probe 1 (10 μM). In the same way, probe 1 was added to the serum in an acute myocardial infarction model in a rat. […]
Blood samples prepared from rats with acute myocardial infarction were drawn from the abdominal aorta in rats after coronary ligation using a 23-gauge needle. […] The protein concentration of the suspension was measured according to the Bradford method. […] The band densities were calculated with Quantity One software 4.6.2 (Bio-Rad Laboratories, Inc., Hercules, CA, USA). […] The data were recorded on an LTQ-Orbitrap Fusion mass spectrometer (ThermoFisher Scientific Inc., Waltham, MA, USA) coupled to an Easy-nLC 1000 LC System (Thermo Fischer Scientic). […]

SMILES strings stand for the structures.

The compound `[N-]=[N+]=NCC(=O)NCCCC[C@H](NC(=O)c1ccc(C(=O)c2ccccc2)cc1)C(=O)OCc1cn(CCOCCOCCOCCOC2CCN(C(=O)[C@H](Cc3ccc(F)cc3)NC(=O)c3cc4cc(Cl)ccc4[nH]3)CC2)nn1` [Compound 3, N-[(S)-1-(4-{2-[2-(2-{2-[4-({[(S)-2-(4-Benzoylbenzamido)-6-(2-azidoacetamido)hexanoyl]oxy}methyl)-1H-1,2,3-triazol-1-yl]ethoxy}ethoxy)ethoxy]ethoxy}piperidin-1-yl)-3-(4-fluorophenyl)-1-oxopropan-2-yl]-5-chloro-1H-indole-2-carboxamide] had a melting point of 113 to 115 °C.
For the compound `O=C(N[C@@H](Cc1ccc(F)cc1)C(=O)N1CCC(OCCOCCOCCOCCO)CC1)c1cc2cc(Cl)ccc2[nH]1` [Compound 11, N-{(S)-1-[4-(2-{2-[2-(2-Hydroxyethoxy)ethoxy]ethoxy}ethoxy)piperidin-1-yl]-3-(4-fluorophenyl)-1-oxopropan-2-yl}-5-chloro-1H-indole-2-carboxamide], the melting point fell in the range of 103 to 105 °C. The IC50 in series [1] came to 0.43 ± 0.16 µM.
Compound `CN(C)c1cccc2c(S(=O)(=O)NCCCC[C@H](NC(=O)c3ccc(C(=O)c4ccccc4)cc3)C(=O)OCc3cn(CCOCCOCCOCCOC4CCN(C(=O)[C@H](Cc5ccc(F)cc5)NC(=O)c5cc6cc(Cl)ccc6[nH]5)CC4)nn3)cccc12` [Compound 1, N-[(S)-1-(4-{2-[2-(2-{2-[4-({[(S)-2-(4-Benzoylbenzamido)-6-(dansylamide)hexanoyl]oxy}methyl)-1H-1,2,3-triazol-1-yl]ethoxy}ethoxy)ethoxy]ethoxy}piperidin-1-yl)-3-(4-fluorophenyl)-1-oxopropan-2-yl]-5-chloro-1H-indole-2-carboxamide] showed a melting point of 151 to 153 °C. In addition, the half-maximal inhibitory concentration (IC50) in series [1] turned out to be 13.2 ± 5.87 µM. Also, the “Labelling of protein bands with MW of about 90–100 kDa in semi-quantitative analysis” value in series [2] (10 μM probe, rat AMI serum and serum blanks with added RMGPa 0–100 ng/mL) is “efficiently labeled”. For the same compound, in series [2] (probe at 10, 3, and 1 mM, and 300, 100, and 30 nM, 2.0 mg/mL proteomes), the “Labelling of protein band with MW of about 90–100 kDa (consistent with MW of GP)” value is “clearly labelled”.
In the case of `CN(C)c1cccc2c(S(=O)(=O)NCCCCC(NC(=O)c3ccc(C(=O)c4ccccc4)cc3)C(=O)N[C@@H](CCCCNC(=O)CCCC[C@@H]3SC[C@H]4NC(=O)N[C@@H]34)C(=O)OCc3cn(CCOCCOCCOCCOC4CCN(C(=O)[C@H](Cc5ccc(F)cc5)NC(=O)c5cc6cc(Cl)ccc6[nH]5)CC4)nn3)cccc12` (stereo partly drawn) [Compound 2, N-[(S)-1-(4-{2-[2-(2-{2-[4-({[(S)-2-[(S)-2-(4-Benzoylbenzamido)-6-(dansylamide)hexanamido]-6-(5-{(3aR,4S,6aS)-2-oxohexahydro-1H-thieno[3,4-d]imidazol-1-yl}pentanamido)hexanoyl]oxy}methyl)-1H-1,2,3-triazol-1-yl]ethoxy}ethoxy)ethoxy]ethoxy}piperidin-1-yl)-3-(4-fluorophenyl)-1-oxopropan-2-yl]-5-chloro-1H-indole-2-carboxamide], the melting point is 159 to 161 °C. Further, the “RMGPa IC50” value in series [1] is reported as “no inhibitory activity”.
